Results as given in patent US20110112147A1, “INDAZOLONE ANALOGS AS GLYCOGEN SYNTHASE ACTIVATORS” (priority 2009, published 2011).

Tested on: glycogen synthase
Assay: Glycogen Synthase (GS) Assay
Format: biochemical
Conditions: for EC50: compound concentration needed to give 50% maximum activation; for GS SC200: compound concentration needed to stimulate 200% of the enzyme activity
Experimental: Twelve μL per well of substrate solution containing glycogen (4.32 mg/ml), 2.67 mM UDP-glucose, 21.6 mM phospho(enol)pyruvate and 2.7 mM NADH in 30 mM glycylglycine, pH 7.3 buffer was added into a polystyrene 384-well assay plate (BD Biosciences).
Compound solutions (8 μL/well) at various concentrations (0-300 μM) were added to the assay plate (columns 5-24). Compound solution contains 30 mM glycylglycine, pH 7.3, 40 mM KCl, 20 mM MgCl2, 9.2% DMSO, with (columns 15-24) or without (columns 5-14) 20 mM glucose 6-phosphate.
Enzyme solution (12 μL/well) containing glycogen synthase (16.88 μg/ml), pyruvate kinase (0.27 mg/ml), lactate dehydrogenase (0.27 mg/ml) in 50 mM Tris-HCl, pH 8.0, 27 mM DTT and bovine serum albumin (BSA, 0.2 mg/ml) was added to the assay plate (columns 3-24). As a blank control, enzyme solution without glycogen synthase was added into the top half wells of columns 1-2. To the bottom half wells of columns 1-2 were added a known activator, glucose 6-phosphate (at final concentration 5 mM) in addition to the enzyme solution. The reaction mixture was incubated at room temperature. The assay plate was then read for absorbance at 340 nm on an Envision reader every 3 minutes up to a total of 15 minutes.
The enzyme activity (with or without compound) was calculated by the reaction rate and represented by the optical density change (δOD) per minute. Percent stimulation of glycogen synthase activity by a compound at various concentrations was calculated by the following formula: […]
wherein Rs is the reaction rate of the enzyme in the presence of compound and Rt is the reaction rate of the enzyme in the absence of compound.
SC200 is defined as the compound concentration that is needed to stimulate 200% of the enzyme activity. EC50 is defined as the compound concentration that is needed to give 50% maximum activation.

EC50 [nM]	Structure (SMILES)	GS SC200 [µM]
680	O=c1c2cccc(COc3ccc(-c4cc(F)c(F)cc4F)cc3)c2[nH]n1C[C@@H](O)CO [Example 15, 2-((R)-2,3-Dihydroxy-propyl)-7-(2′,4′,5′-trifluoro-biphenyl-4-yloxymethyl)-1,2-dihydro-indazol-3-one]	0.32
580	O=c1c2cccc(COc3ccc(-c4cc(F)c(F)cc4F)cc3)c2[nH]n1C[C@H](O)CO [Example 16, 2-((S)-2,3-Dihydroxy-propyl)-7-(2′,4′,5′-trifluoro-biphenyl-4-yloxymethyl)-1,2-dihydro-indazol-3-one]	0.41
270	COc1cc(F)c(F)cc1-c1ccc(OCc2cccc3c(=O)n(C[C@@H](O)CO)[nH]c23)cc1 [Example 17, 7-(4′,5′-Difluoro-2′-methoxy-biphenyl-4-yloxymethyl)-2-((R)-2,3-dihydroxy-propyl)-1,2-dihydro-indazol-3-one]	0.06
250	COc1cc(F)c(F)cc1-c1ccc(OCc2cccc3c(=O)n(C[C@H](O)CO)[nH]c23)cc1 [Example 18, 7-(4′,5′-Difluoro-2′-methoxy-biphenyl-4-yloxymethyl)-2-((S)-2,3-dihydroxy-propyl)-1,2-dihydro-indazol-3-one]	0.07
230	Cc1cc(F)c(F)cc1-c1ccc(OCc2cccc3c(=O)n(C[C@@H](O)CO)[nH]c23)cc1 [Example 19, 7-(4′,5′-Difluoro-2′-methyl-biphenyl-4-yloxymethyl)-2-((R)-2,3-dihydroxy-propyl)-1,2-dihydro-indazol-3-one]	0.10
340	Cc1cc(F)c(F)cc1-c1ccc(OCc2cccc3c(=O)n(C[C@H](O)CO)[nH]c23)cc1 [Example 20, 7-(4′,5′-Difluoro-2′-methyl-biphenyl-4-yloxymethyl)-2-((S)-2,3-dihydroxy-propyl)-1,2-dihydro-indazol-3-one]	0.11
260	O=c1c2cccc(COc3ccc(-c4cc(F)c(F)cc4Cl)cc3)c2[nH]n1C[C@@H](O)CO [Example 21, 7-(2′-Chloro-4′,5′-difluoro-biphenyl-4-yloxymethyl)-2-((R)-2,3-dihydroxy-propyl)-1,2-dihydro-indazol-3-one]	0.25
300	O=c1c2cccc(COc3ccc(-c4cc(F)c(F)cc4Cl)cc3)c2[nH]n1C[C@H](O)CO [Example 22, 7-(2′-Chloro-4′,5′-difluoro-biphenyl-4-yloxymethyl)-2-((S)-2,3-dihydroxy-propyl)-1,2-dihydro-indazol-3-one]	0.16

The next lines start with the compound.

Structure (SMILES)	EC50 [nM]	GS SC200 [µM]
Cc1cc(F)c(F)cc1-c1ccc(OCc2cccc3c(=O)n(C)[nH]c23)cc1 [Example 1, 7-(4′,5′-Difluoro-2′-methyl-biphenyl-4-yloxymethyl)-2-methyl-1,2-dihydro-indazol-3-one]	240	0.13
Cn1[nH]c2c(COc3ccc(-c4cc(F)c(F)cc4F)cc3)cccc2c1=O [Example 2, 2-Methyl-7-(2′,4′,5′-trifluoro-biphenyl-4-yloxymethyl)-1,2-dihydro-indazol-3-one]	1780	0.49
COc1cc(F)c(F)cc1-c1ccc(OCc2cccc3c(=O)n(C)[nH]c23)cc1 [Example 3, 7-(4′,5′-Difluoro-2′-methoxy-biphenyl-4-yloxymethyl)-2-methyl-1,2-dihydro-indazol-3-one]	330	0.04
O=C(O)Cn1[nH]c2c(COc3ccc(-c4cc(F)c(F)cc4F)cc3)cccc2c1=O [Example 4, [3-oxo-7-(2′,4′,5′-trifluoro-biphenyl-4-yloxymethyl)-1,3-dihydro-indazol-2-yl]-acetic acid]	1200	0.69
COc1cc(F)c(F)cc1-c1ccc(OCc2cccc3c(=O)n(CC(=O)O)[nH]c23)cc1 [Example 5, [7-(4′,5′-Difluoro-2′-methoxy-biphenyl-4-yloxymethyl)-3-oxo-1,3-dihydro-indazol-2-yl]-acetic acid]	200	0.06
COCCn1[nH]c2c(COc3ccc(-c4cc(F)c(F)cc4F)cc3)cccc2c1=O.Cl [Example 6, 2-(2-Methoxy-ethyl)-7-(2′,4′,5′-trifluoro-biphenyl-4-yloxymethyl)-1,2-dihydro-indazol-3-one Hydrochloride]	790	0.52
COCCn1[nH]c2c(COc3ccc(-c4cc(F)c(F)cc4OC)cc3)cccc2c1=O [Example 7, 7-(4′,5′-Difluoro-2′-methoxy-biphenyl-4-yloxymethyl)-2-(2-methoxy-ethyl)-1,2-dihydro-indazol-3-one]	370	0.11
O=c1c2cccc(COc3ccc(-c4cc(F)c(F)cc4F)cc3)c2[nH]n1CCO [Example 8, 2-(2-Hydroxy-ethyl)-7-(2′,4′,5′-trifluoro-biphenyl-4-yloxymethyl)-1,2-dihydro-indazol-3-one]	770	0.22
Cc1cc(F)c(F)cc1-c1ccc(OCc2cccc3c(=O)n(CC(=O)O)[nH]c23)cc1.Cl [Example 9, [7-(4′,5′-Difluoro-2′-methyl-biphenyl-4-yloxymethyl)-3-oxo-1,3-dihydro-indazol-2-yl]acetic acid Hydrochloride]	420	0.33
Cc1cc(F)c(F)cc1-c1ccc(OCc2cccc3c(=O)n(-c4ccc(F)cc4)[nH]c23)cc1 [Example 10, 7-(4′,5′-Difluoro-2′-methyl-biphenyl-4-yloxymethyl)-2-(4-fluoro-phenyl)-1,2-dihydro-indazol-3-one]	1470	1.86
COc1cc(F)c(F)cc1-c1ccc(OCc2cccc3c(=O)n(-c4ccc(F)cc4)[nH]c23)cc1 [Example 11, 7-(4′,5′-Difluoro-2′-methoxy-biphenyl-4-yloxymethyl)-2-(4-fluoro-phenyl)-1,2-dihydro-indazol-3-one]	1370	2.01
COc1cc(F)c(F)cc1-c1ccc(OCc2cccc3c(=O)n(-c4cccnc4)[nH]c23)cc1 [Example 12, 7-(4′,5′-Difluoro-2′-methoxy-biphenyl-4-yloxymethyl)-2-pyridin-3-yl-1,2-dihydro-indazol-3-one]	780	0.60
Cl.O=c1c2cccc(COc3ccc(-c4cc(F)c(F)cc4F)cc3)c2[nH]n1-c1cccnc1 [Example 13, 2-Pyridin-3-yl-7-(2′,4′,5′-trifluoro-biphenyl-4-yloxymethyl)-1,2-dihydro-indazol-3-one Hydrochloride]	4010	2.75
O=c1c2cccc(COc3ccc(-c4cc(F)c(F)cc4Cl)cc3)c2[nH]n1-c1cccnc1 [Example 14, 7-(4′,5′-Difluoro-2′-chloro-biphenyl-4-yloxymethyl)-2-pyridin-3-yl-1,2-dihydro-indazol-3-one]	1860	1.14
